For data set [1] the following is noted: 293.15 K; 101.33 kPa; Liquid; Vibrating tube method.
Data set [2] is described as follows: refractive index (Na D-line) (dimensionless). The conditions noted are these: 298.15 K; 101.33 kPa; Liquid; Standard Abbe refractometry.

± gives the expanded uncertainty stated by the source.

Usually mass density stands for the mass of a sample divided by its volume. For orientation: refractive index means a measure of how strongly the sample bends light.

Consider `COC(C)(C)C` [2-methoxy-2-methylpropane], for which the mass density in data set [1] was 739.8 ± 0.4 kg/m3. In addition, the refractive index in data set [2] amounted to 1.3689 ± 0.0005.

`Oc1ccc(O)cc1` [1,4-benzenediol]: the mass density in data set [1] was found to be 1328 ± 1 kg/m3.
